# In PubChem BioAssay AID1645848:
# Details: buffer; pH 7.4; 6.0 h; 150.0 µM
row,SMILES,solubility kinetic [µg/mL]
1,Cc1ccccc1C(=O)N1CCc2cc(-c3nc(NC(=O)Cc4ccc5c(c4)OCCO5)sc3C)ccc21,< 1
2,CCCc1cc(C)[nH]c(=O)c1CNC(=O)c1cc(-c2ccnc(N3CCN(C)CC3)c2)cc2c1cnn2C(C)C,64
3,COc1cccc(-n2ncc3c2CCCC3NC(=O)c2ccccn2)c1 (stereo unspecified),> 51
4,CCOc1ccc(CCNC(=O)c2cc3cccnc3n2Cc2cccc(C)n2)cc1OCC,43.8
5,Cc1ccc2oc3c(c(=O)c2c1)C(c1cccc(O)c1)N(CCCN1CCOCC1)C3=O (stereo unspecified),> 64
6,O=c1[nH]c(N2CCOCC2)nc2c1CCN(Cc1cc(Cl)ccc1F)CC2,28.6
7,CC1CCN(S(=O)(=O)c2ccc3c(c2)C(C)(C)C(=O)N3CC(=O)NCc2ccco2)CC1,34.2
8,COc1ccccc1NC(=O)C1=C(C)Nc2c(C(=O)Nc3cccc(C)c3)cnn2C1c1ccccc1Cl (stereo unspecified),< 1
9,NC(=O)C1CCN(c2nc(-c3ccc(N4CCCCC4)nc3)cs2)CC1,43.5
10,Clc1cccc(COc2cncc(N3CCNCC3)n2)c1,> 45
11,CC(=O)NCCNC(=O)c1ccc(-c2ncc3cnc(-c4cccc(F)c4)cn23)cc1,> 92
12,O=C1CCCC2=C1C(c1[nH]ncc1Cl)N=C(Nc1nc3cc(F)ccc3o1)N2 (stereo unspecified),3.16
13,CCN1CCN(CCCOc2ccc(-c3ccccc3)cc2)CC1,> 48
14,O=C(Nc1ncc(Cc2ccc(C(F)(F)F)cc2)s1)c1cnc(-c2ccccc2)[nH]1,< 1
15,CSc1cccc(NC(=O)CC[C@H]2O[C@@H]3O[C@]4(C)CC[C@H]5[C@H](C)CC[C@@H]([C@@H]2C)[C@@]35OO4)c1,1.2
16,CC(=O)c1c(C)[nH]c(C(=O)Nc2cccc([S+](=O)([O-])N3CC[C@@H](F)C3)c2)c1C,23.3
17,O=C1CCCC2=C1C(c1ccccc1C(F)(F)F)N=C(Nc1nc3ccccc3o1)N2 (stereo unspecified),< 1
18,Fc1cc(Nc2nc(-c3ccncc3)nc3ccccc23)ccc1-c1ccc(F)c(F)c1F,< 1
19,CC(=O)Nc1ccc(-c2csc(N3CCC(C(N)=O)CC3)n2)cc1,> 51
20,CC1=C(C(=O)NC2CCCCC2)C(c2ccccc2Br)N=C(Nc2nc3ccccc3o2)N1 (stereo unspecified),< 1
21,Cc1nnc2c3ccccc3nc(N3CCN(c4ccccc4)CC3)n12,< 1
22,C#CC1(O)CCC2C3CCC4=C/C(=N/OCC(=O)NCC(=O)NC(C(=O)O)C(C)C)CC[C@]4(C)C3CC[C@@]21C (stereo partly specified),> 80
23,C#CCNC(=O)c1nc(-c2ccc(Cl)nc2)c2ccccn12,2.64
24,Cc1cn2nc(-c3nc(C4CCCN(C(=O)c5ccccc5)C4)no3)cc2c(=O)[nH]1 (stereo unspecified),27.5

row,SMILES,solubility kinetic [µg/mL]
1,CCOC(=O)C1CCN(C(=O)C(C)(C)NC(=O)Nc2ccc(Cl)cc2Cl)CC1,37
2,COc1ccnc(NC(=S)N2CCN(c3cccc(C(F)(F)F)c3)CC2)c1,13
3,COc1cccc(CNc2ccc(S(=O)(=O)Nc3cccs3)cc2)c1O,11.6
4,Cc1ccc(C(=O)Nc2nc(-c3ccccn3)cs2)cc1S(=O)(=O)N1CCOCC1,7.21
5,O=C1CCCC2=C1C(c1[nH]ncc1Cl)N=C(Nc1nc3ccc(Cl)cc3o1)N2 (stereo unspecified),1
6,Cc1ccc(CN2C(=O)C(O)(CC(=O)c3ccc(C)cc3)c3ccccc32)cc1 (stereo unspecified),< 1
7,Fc1ccccc1-c1nc(NCc2ccc(-c3cccnc3)cc2)c2ccccc2n1,< 1
8,N[C@@H]1CN(c2c(F)cc3c(=O)c(C(=O)O)cn([C@@H]4C[C@@H]4F)c3c2Cl)CC12CC2,> 60
9,CCCC1=Nc2cc(C(=O)NC3CCCCC3)ccc2Sc2ccc(C)cc21,1.37
10,CCCc1ccc(C(=O)NC(=O)c2ccccc2O)cc1,1.6
11,Cc1cc(NS(=O)(=O)c2ccc(NC(=O)Cc3ccc(Cl)c(Cl)c3)cc2)no1,> 65
12,Cc1cc(C(=O)Nc2nnc(C3CCCCC3)s2)cs1,< 1
13,O=c1c(-c2ccc(O)cc2)coc2cc(O)cc(O)c12,27.3
14,CCOC(=O)CCNc1cc(N2CCc3ccccc3CC2)nc(-c2cccnc2)n1,4.04
15,Cc1ccc(S(=O)(=O)Nc2cc3c(cc2C(=O)Nc2nc(-c4ccccc4)cs2)OCO3)cc1,< 1
16,COc1cc(-c2nc(-c3c(C)noc3C)cc3c2cc(C)n3CCN(C)C)ccn1,> 90
17,O=C(Nc1ncccc1O)c1ccc(S(=O)(=O)Nc2ccccc2)cc1,> 55
18,Cc1cnc(-c2ccccc2C(C)C)nc1NCC1CN(c2cccnc2)C1,36.3
19,O=C(Nc1nc(-c2ccccc2)cs1)c1ccncc1NS(=O)(=O)c1ccc(F)cc1,45.8
20,O=C(Nc1ccc(S(=O)(=O)Nc2nccs2)cc1)c1cccc2ccccc12,1.39
21,O=C(Nc1nc(-c2ccccc2)cs1)c1ccncc1NS(=O)(=O)c1ccc(F)c(F)c1,49.8
22,O=S(=O)(Nc1nccs1)c1ccc(Nc2nc(-c3ccc(F)cc3)cs2)cc1,2.36
23,CSc1cc2c(s1)c1cnn(Cc3cccc(N)c3)c(=O)c1n2C,< 1
24,O=C(NCCCN1CCCC1=O)c1ccc(-c2ncc3cnc(-c4ccccc4)cn23)cc1,21.9

row,SMILES,solubility kinetic [µg/mL]
1,COc1ccccc1CNC(=O)CCCn1nc(C)c2c(C)n(-c3ccc(C)cc3)nc2c1=O,2.29
2,CCOc1ccc(C2c3c(oc4ccc(C)cc4c3=O)C(=O)N2CCCN(C)C)cc1 (stereo unspecified),> 62
3,COc1ccc(-n2nc3c(N4CCCC(C(=O)NCCc5ccc(C)cc5)C4)nnc(C)c3c2C)cc1 (stereo unspecified),4.04
4,COCCNC(=O)c1ccc(-c2ccc(N3CCCCC3)nc2)cc1,4.58
5,CCC(=O)N1CCN(c2ccc(-n3c(=O)ccc4cnc5ccc(-c6cnc7ccccc7c6)cc5c43)cc2C(F)(F)F)CC1,< 1
6,COc1ccc(NC(=O)CCCc2nnc3n(CCC(C)C)c(=O)c4sccc4n23)cc1Cl,< 1
7,CCOC(=O)Cc1ccc(NC(=O)n2ncc3cc(Cl)ccc32)cc1,< 1
8,CCN1CCN(CCCNC(=O)c2ccc3c(c2)sc2nc(-c4ccc(OC)cc4)cn23)CC1,> 71
9,CCN(CC)S(=O)(=O)c1ccc(N2CCOCC2)c(NC(=O)c2[nH]c(C)c(C(C)=O)c2C)c1,3.85
10,O=c1c(O)c(-c2ccc(O)cc2)oc2cc(O)cc(O)c12,1.35
11,CCOc1cc(F)c(CCNC(=O)c2cc3sccc3n2Cc2ccccc2)cc1OCC,< 1
12,COc1ccc(-c2cc(C(F)(F)F)nc(SCCC(=O)Nc3cc(C)ccc3O)n2)cc1,< 1
13,Cc1cc(-c2cc3c(nc2-c2ccccc2)nc(C(=O)NCCN(C)C)n3C)ccn1,54.5
14,O=C(C1CCN(c2nc(-c3ccc(Br)cc3)cs2)CC1)N1CCOCC1,7.27
15,CC1=C(C(=O)Nc2nncs2)C(c2ccccc2Br)N=C(Nc2nc3ccccc3o2)N1 (stereo unspecified),< 1
16,CN(C)C(=O)C1CCN(c2nc(-c3ccc(Br)cc3)cs2)CC1,1.8
17,COc1ccc(C2=Nc3ccc(C)cc3C(c3ccccc3)N2CC(=O)NN)cc1 (stereo unspecified),> 59
18,NC(=O)C1CCN(c2ncnc(-c3ccc4c(c3)OCCCO4)n2)CC1,> 52
19,O=C(Nc1ccc(OC(F)(F)Cl)cc1)c1cnc(N2CC[C@@H](O)C2)c(-c2ccn[nH]2)c1,14.6
20,COc1c(C)cc(NC(=O)c2nn(Cc3ccc(F)cc3)c3c2CN(C(=O)c2ccc[nH]2)C[C@]3(C)C(N)=O)cc1C,< 1
21,CNC(=O)c1ccc(C)c(-n2c(C)cc(OCc3ccc(F)cc3F)c(Br)c2=O)c1,> 100
22,Nc1nc2c(s1)C(c1ccc(Br)cc1)CC(=O)N2 (stereo unspecified),6.66
23,O=C1CCCC2=C1C(c1[nH]ncc1Cl)N=C(Nc1nc3cc([S+](=O)([O-])N4CCOCC4)ccc3o1)N2 (stereo unspecified),> 78
24,Cc1cccc(C)c1C(=O)Nc1cccc([S+](=O)([O-])N2CCCCCC2)c1,2.03

row,SMILES,solubility kinetic [µg/mL]
1,NC(=O)C1CCN(c2nc(-c3cccc(Br)c3)cs2)CC1,20.5
2,CN(C)c1cccc(-c2cnc(N3CCC(C(N)=O)CC3)nc2)c1,34.9
3,CC1=C[C@@H](CN2C(=O)C(C)=C(C)C2=O)[C@H](C(C)C)C[C@H]1Cc1nc2c(C)cccc2[nH]1,3.65
4,NC(=O)C1CCN(c2ncc(-c3ccc4c(c3)OCCO4)s2)CC1,4.52
5,Cc1noc(C)c1-c1csc(N2CCC(C(N)=O)CC2)n1,> 45
6,CC(=O)N1CCN(c2ccc(OCc3nn(C)c(C)c3-c3cccc4c(CCCOc5cccc6ccccc56)c(C(=O)O)n(Cc5cccnc5)c34)cc2)CC1,> 100
7,COc1cc(Cl)c(C)cc1Nc1c2c(nc3ccccc13)CCC2,3.79
8,O=C(O)c1ccc(Nc2nc(-c3cc4ccccc4oc3=O)cs2)cc1O,11.7
9,Cc1ccc(NS(=O)(=O)c2c(C)[nH]c(C)c2C(=O)N2CCCC2)cc1Cl,48
10,CCc1c(C)nc2c(-c3cnn(-c4cc(CO)ccn4)c3)c[nH]n2c1=O,10.1
11,CNC(=O)c1cc(Oc2ccc(NC(=O)Nc3ccc(Cl)c(C(F)(F)F)c3)c(F)c2)ccn1,< 1
12,O=S(=O)(Nc1nc2ccccc2s1)c1ccc(NCc2cccc(Cl)c2O)cc1,1.1
13,CNc1nc2c(s1)C(c1ccc(Cl)cc1)CC(=O)N2 (stereo unspecified),10.8
14,Cc1ccc(NC(=O)c2c(N3CCCC3=O)c3cc(C)ccc3n2C)c(C)c1,< 1
15,Cc1nc2sccn2c(=O)c1S(=O)(=O)Nc1ccc(N2CCN(S(C)(=O)=O)CC2)cc1,6.85
16,CC(Nc1ccc([S+](=O)([O-])Nc2nccs2)cc1)c1ccccc1 (stereo unspecified),4.76
17,COc1ccccc1NS(=O)(=O)c1cccc(NC(=O)c2[nH]c(C)c(C(C)=O)c2C)c1,15.2
18,O=C(c1ccc2ccccc2c1)N1CCN(c2ccc(O)cc2)CC1,27.5
19,O=C(Nc1cccc(C(F)(F)F)c1)C1=CCN(Cc2ccc(F)cc2)CC1,26.2
20,O=C1CCCc2cc(S(=O)(=O)Nc3cnccc3C(=O)Nc3nc(-c4ccccc4)cs3)ccc2N1,62.9
21,Cc1cc(-c2nnc3n2CCCCC3)c(C)n1-c1ccc(Br)cc1,27.4
22,Cn1c(C(=O)NCCc2ccccn2)nc2nc(-c3ccccc3)c(Cl)cc21,1.11
23,Nc1c(C(=O)Nc2ccc(Cl)cc2)sc2nc3c(cc12)N1CCC3CC1,< 1
24,CCc1ccc2oc(=O)cc(CN3CCN(c4ccccc4F)CC3)c2c1,< 1
